Assay results from PubChem BioAssay (NCI).
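How tested: cells in 96-well plates exposed to compound for 48 hours at five concentrations. The concentration for 50% growth inhibition is given as GI50. TGI: concentration producing complete growth inhibition.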

What was measured:
Experiment in all cases: NCI anticancer screen, dose series, 48 h
IGROV1 ovarian = tested on: IGROV1 ovarian
786-0 renal = tested on: 786-0 renal
SNB-19 CNS = tested on: SNB-19 CNS
SF-295 CNS = tested on: SF-295 CNS
HOP-62 NSCLC = tested on: HOP-62 NSCLC
NCI-H23 lung = tested on: NCI-H23 lung
PC-3 prostate = tested on: PC-3 prostate
HCC-2998 colon = tested on: HCC-2998 colon
NCI-H522 lung = tested on: NCI-H522 lung
SR leukemia = tested on: SR leukemia

SMILES	GI50 (IGROV1 ovarian) [µM]	TGI (IGROV1 ovarian) [µM]	GI50 (786-0 renal) [µM]	TGI (786-0 renal) [µM]	GI50 (SNB-19 CNS) [µM]	TGI (SNB-19 CNS) [µM]	GI50 (SF-295 CNS) [µM]	TGI (SF-295 CNS) [µM]	GI50 (HOP-62 NSCLC) [µM]	TGI (HOP-62 NSCLC) [µM]	GI50 (NCI-H23 lung) [µM]	TGI (NCI-H23 lung) [µM]	GI50 (PC-3 prostate) [µM]	TGI (PC-3 prostate) [µM]	GI50 (HCC-2998 colon) [µM]	TGI (HCC-2998 colon) [µM]	GI50 (NCI-H522 lung) [µM]	TGI (NCI-H522 lung) [µM]	GI50 (SR leukemia) [µM]	TGI (SR leukemia) [µM]
O=C(CN1C(=O)S/C(=C\C(Cl)=C\c2ccccc2)C1=O)NCCc1ccc(O)cc1	1.76	3.9	1.84	3.54	2.54	9.46	2.1	4.29	3.34	15.7	2.29	6.15	1.96	5.12	1.85	3.33	1.96	5.77	0.955	> 100
Cc1sc(NC2=NC(=O)/C(=C\c3ccccc3)S2)nc1-c1nc(NC2=NC(=O)/C(=C\c3ccccc3)S2)sc1C	23	> 50	11.4	33.4	26	> 50	13.2	> 40.7	8.71	22.9	15.4	> 41.4	16.7	> 50	14.2	39.9	22.3	> 50	7.49	21.4
COc1cccc(Cn2c(-c3nonc3NC(C)=O)nc3ccccc32)c1	7.98	> 100	10.4	> 100	7.15	> 100	1.85	78.7	8.53	> 100	6.42	> 100	2.83	> 100	5.83	> 100	2.95	90.3	4.14	> 100
CNC(=O)NC(CCCCNC(=O)OCc1ccccc1)C(=O)OCc1ccccc1 (stereo not given)		> 100		> 100		> 100		> 100		> 100		> 100		> 100		> 72.9		21.4		99.5
